Data from patent US6423689B1, “Peptidyl calcium channel blockers” (Warner-Lambert Company, priority 1997, dated 2002).
pIC50: −log10 of the molar value.

Experiments:
[1] = molecular target: T1, N-type Ca2+ channels in IMR-32 cells (Homo sapiens, UniProt Q00975); assay: Inhibition of N-type calcium flux in IMR-32 cells (Indo-1 fluorescence, nitrendipine present); format: cell-based; details: for inhibition at 1 µM / inhibition at 10 µM: IMR-32
T1 construct: host or cells: IMR-32 cells, differentiated with dibutyryl cAMP and bromodeoxyuridine
Summary of the method: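 Differentiated IMR-32 cells (7–13 days) were loaded with 5 μM Indo-1 AM, preincubated with compound for 10 min at 30° C, and depolarized with KCl/CaCl2 stimulation solution, with 5 μM nitrendipine blocking L-channels. Peak-minus-basal 400/490 nm emission ratio was plotted against drug concentration, and IC50 came from four-parameter logistic fits.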

[2] = molecular target: T2, L-type Ca2+ channels in A10 cells (Rattus norvegicus, UniProt P22002); assay: Inhibition of L-type calcium flux in A10 cells (FLIPR); format: cell-based
T2 construct: which endogenously expresses L-type calcium channels; host or cells: A10 rat aortic smooth muscle cells
Procedure: Measurement of L-type Ca^2+ Channel Blocking Potencies of Compounds in A10 cells
Calcium flux through voltage-sensitive calcium channels was assessed by time-resolved monitoring of the fluorescence of pre-loaded calcium-sensitive dyes using FLIPR, a fluorescent image plate reader (Molecular Devices Co.). The A10 smooth muscle cell line derived from embryonic thoracic aorta of the DBIX rat (ATCC, CRL-1476) which endogenously expresses L-type calcium channels. The growth media for A10 cells was Ham's F12/DME high glucose (Irvine Scientific, 9052), supplemented with 20% fetal bovine serum (HyClone Labs, A-1115-L), and 1% each of L-glutamine and antibiotic-antimycotic (same source as above).
Cells were grown to confluency and replated on black-sided 96-well plates (Costar, 3603) for use in FLIPR. Two days after replating, growth media was removed and cells were loaded at 37° C. with 100 μL media containing 1 μM Oregon Green 488 Bapta-1 dye (Molecular Probes, O-6807) for 1 to 3 hours. The dye-containing media was then washed away with buffer (composition in mM: 1.25 CaCl2, 1.2 MgSO4, 11 glucose, 10 HEPES, 3.0 KCl, 137.0 NaCl, pH 7.4 with Tris base) in a Denley Cellwash (Labsystems, CW018B). The residual buffer volume was adjusted to 50 μL. A 5 minute drug-pre-incubation period at 35° C. was initiated when 50 μL of drug-containing buffer was pipetted into the cell plate with the 96-well pipettor integrated in the FLIPR apparatus. Fluorescent counts were monitored at 20 second intervals for 360 seconds, beginning 60 seconds prior to the delivery of drug-containing buffer. Following drug addition, 100 μL aliquots of a high K^+, depolarizing stimulus (composition in mM: 1.25 CaCl2, 1.2 MgSO4, 11 glucose, 10 HEPES, 140.0 KCl, pH 7.4 with Tris base) were added to each well and fluorescence was monitored at 1 second intervals for 120 seconds, beginning 10 seconds prior to the stimulus addition. CCD camera exposure time was 0.4 seconds, laser excitation was at 488 nm with a power of 0.2-0.5W, and a 510 to 560 nm bandpass interference filter preceded the camera.
Data was analyzed as a summation of fluorescent counts above basal during the stimulation period (an approximation of area under the curve), after normalizing the data with a spatial uniformity correction (for variations in laser illumination and cell density) and a negative control correction (zero calcium increase defined as the fluorescence reading in the presence of saturating pharmacologic block of the respective calcium channel). Drug effects were expressed as percent inhibition of fluorescence from an average of 8 K^+-stimulated wells which were pre-treated in the drug incubation period with buffer only.
In the A10 cells, the pharmacologic agent used to define zero calcium influx was nitrendipine (RBI, N-144), at a final concentration of 1.0×10^−6 M.

T1 sequence (Q00975 whole entry): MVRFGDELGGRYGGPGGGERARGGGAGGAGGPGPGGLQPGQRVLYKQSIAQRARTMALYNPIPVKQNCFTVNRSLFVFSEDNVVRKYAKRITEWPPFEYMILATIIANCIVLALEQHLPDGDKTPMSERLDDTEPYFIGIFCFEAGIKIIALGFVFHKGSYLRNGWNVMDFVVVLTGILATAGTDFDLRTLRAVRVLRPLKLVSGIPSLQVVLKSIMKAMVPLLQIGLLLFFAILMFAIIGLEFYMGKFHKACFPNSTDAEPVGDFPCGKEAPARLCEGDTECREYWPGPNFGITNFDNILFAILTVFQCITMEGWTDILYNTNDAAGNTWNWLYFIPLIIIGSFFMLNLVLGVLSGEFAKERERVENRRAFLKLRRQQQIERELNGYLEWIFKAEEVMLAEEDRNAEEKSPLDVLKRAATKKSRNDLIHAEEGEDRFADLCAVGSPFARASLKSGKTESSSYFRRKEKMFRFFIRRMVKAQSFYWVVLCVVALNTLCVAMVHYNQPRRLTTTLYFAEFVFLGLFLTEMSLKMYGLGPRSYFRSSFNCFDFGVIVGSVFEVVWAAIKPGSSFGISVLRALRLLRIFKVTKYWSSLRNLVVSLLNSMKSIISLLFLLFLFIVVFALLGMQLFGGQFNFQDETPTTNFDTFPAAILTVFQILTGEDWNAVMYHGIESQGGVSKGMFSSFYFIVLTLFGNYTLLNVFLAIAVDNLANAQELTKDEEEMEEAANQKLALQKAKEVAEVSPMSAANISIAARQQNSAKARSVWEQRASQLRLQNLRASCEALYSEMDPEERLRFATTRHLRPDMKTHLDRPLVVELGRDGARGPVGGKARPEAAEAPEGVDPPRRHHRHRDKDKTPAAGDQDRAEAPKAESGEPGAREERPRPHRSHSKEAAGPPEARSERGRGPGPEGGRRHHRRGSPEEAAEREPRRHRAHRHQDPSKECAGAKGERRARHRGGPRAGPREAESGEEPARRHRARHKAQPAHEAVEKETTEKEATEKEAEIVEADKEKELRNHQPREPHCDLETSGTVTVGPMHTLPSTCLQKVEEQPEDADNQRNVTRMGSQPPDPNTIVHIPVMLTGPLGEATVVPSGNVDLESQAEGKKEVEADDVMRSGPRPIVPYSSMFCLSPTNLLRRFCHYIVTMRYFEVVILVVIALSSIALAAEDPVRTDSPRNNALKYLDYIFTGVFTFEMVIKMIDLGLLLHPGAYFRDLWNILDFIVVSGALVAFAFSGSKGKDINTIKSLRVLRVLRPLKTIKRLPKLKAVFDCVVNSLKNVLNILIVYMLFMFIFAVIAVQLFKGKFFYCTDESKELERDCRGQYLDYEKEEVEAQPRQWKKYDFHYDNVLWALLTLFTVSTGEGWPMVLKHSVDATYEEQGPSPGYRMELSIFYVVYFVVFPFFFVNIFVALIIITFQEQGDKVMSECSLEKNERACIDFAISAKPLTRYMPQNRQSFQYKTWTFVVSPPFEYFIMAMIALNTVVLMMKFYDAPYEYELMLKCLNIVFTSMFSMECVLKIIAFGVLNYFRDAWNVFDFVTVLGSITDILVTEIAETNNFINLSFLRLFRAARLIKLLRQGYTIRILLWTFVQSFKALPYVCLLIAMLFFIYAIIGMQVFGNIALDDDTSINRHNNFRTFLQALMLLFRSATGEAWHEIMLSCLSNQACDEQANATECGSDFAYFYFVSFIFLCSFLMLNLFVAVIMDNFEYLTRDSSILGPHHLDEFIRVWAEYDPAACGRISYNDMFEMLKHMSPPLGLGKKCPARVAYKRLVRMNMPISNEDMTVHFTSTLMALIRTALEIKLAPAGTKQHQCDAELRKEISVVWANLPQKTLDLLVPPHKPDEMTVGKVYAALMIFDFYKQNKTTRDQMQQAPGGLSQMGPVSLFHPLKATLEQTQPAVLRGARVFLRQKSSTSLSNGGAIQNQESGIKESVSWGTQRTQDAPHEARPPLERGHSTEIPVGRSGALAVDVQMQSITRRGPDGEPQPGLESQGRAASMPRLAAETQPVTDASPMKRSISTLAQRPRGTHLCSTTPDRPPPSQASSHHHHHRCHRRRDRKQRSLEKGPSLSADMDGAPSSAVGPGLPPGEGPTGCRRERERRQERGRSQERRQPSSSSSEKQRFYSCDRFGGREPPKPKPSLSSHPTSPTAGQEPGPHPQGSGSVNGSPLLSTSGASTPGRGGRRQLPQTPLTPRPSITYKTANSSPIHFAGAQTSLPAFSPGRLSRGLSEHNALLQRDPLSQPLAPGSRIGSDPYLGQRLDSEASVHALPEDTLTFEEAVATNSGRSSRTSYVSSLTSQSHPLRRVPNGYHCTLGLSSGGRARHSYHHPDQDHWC
T1 sequence (P54289 25-956 partner limits assumed): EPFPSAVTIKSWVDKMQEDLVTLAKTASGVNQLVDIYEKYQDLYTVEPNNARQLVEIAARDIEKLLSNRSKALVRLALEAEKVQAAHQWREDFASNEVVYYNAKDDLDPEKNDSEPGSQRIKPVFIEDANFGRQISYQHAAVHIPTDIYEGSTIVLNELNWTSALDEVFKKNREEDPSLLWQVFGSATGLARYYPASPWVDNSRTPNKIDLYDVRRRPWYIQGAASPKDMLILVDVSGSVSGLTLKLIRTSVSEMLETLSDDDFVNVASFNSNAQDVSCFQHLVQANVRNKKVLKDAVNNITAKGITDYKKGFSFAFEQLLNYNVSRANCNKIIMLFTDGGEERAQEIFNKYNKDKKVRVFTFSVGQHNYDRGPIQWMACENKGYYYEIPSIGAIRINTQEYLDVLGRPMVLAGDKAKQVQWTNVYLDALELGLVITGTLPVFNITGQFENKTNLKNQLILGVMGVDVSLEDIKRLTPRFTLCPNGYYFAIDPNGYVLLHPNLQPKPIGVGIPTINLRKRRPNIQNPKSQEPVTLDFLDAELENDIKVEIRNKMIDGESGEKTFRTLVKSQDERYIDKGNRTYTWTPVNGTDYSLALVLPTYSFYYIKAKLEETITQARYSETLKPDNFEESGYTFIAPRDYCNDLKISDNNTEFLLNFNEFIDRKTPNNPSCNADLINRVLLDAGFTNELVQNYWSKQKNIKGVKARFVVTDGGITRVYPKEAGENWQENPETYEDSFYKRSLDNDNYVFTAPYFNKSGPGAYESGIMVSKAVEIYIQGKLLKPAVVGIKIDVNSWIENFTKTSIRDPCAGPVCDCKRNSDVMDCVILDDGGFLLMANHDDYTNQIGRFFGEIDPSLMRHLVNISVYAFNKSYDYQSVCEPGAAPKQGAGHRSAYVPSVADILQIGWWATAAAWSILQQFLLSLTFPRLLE
T1 sequence (P54289 957-1103 partner limits assumed): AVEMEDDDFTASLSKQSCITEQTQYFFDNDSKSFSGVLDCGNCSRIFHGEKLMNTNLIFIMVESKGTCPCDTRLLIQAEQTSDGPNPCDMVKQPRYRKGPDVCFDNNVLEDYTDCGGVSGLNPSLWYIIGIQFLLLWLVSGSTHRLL
T1 sequence (P54284 whole entry partner): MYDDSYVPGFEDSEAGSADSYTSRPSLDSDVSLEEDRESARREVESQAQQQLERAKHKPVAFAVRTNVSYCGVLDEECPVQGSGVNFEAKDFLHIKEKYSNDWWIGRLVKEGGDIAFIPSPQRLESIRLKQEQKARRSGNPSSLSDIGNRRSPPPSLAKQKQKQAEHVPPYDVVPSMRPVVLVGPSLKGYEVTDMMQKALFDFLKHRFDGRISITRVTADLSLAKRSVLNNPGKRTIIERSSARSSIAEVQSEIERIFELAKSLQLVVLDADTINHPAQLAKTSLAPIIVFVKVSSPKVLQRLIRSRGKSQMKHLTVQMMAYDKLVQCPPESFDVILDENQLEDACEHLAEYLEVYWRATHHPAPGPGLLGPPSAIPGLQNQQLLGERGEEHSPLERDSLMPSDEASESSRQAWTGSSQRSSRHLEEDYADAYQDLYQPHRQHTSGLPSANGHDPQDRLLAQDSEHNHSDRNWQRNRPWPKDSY

Row | SMILES | melting point [°C] | inhibition at 1 µM [1] [%] | inhibition at 10 µM [1] [%] | pIC50 ([1]; IMR-32 cells, 5 μM nitrendipine, K+ depolarization) | pIC50 [2]
1 | CC(C)C[C@H](NC(=O)N1CCCCCC1)C(=O)N[C@@H](Cc1ccc(NCc2ccccc2)cc1)C(=O)NC(C)(C)C [Example 132, [S-(R*,R*)]-Azepane-1-carboxylic acid {1-[2-(4-benzylamino-phenyl)-1-tert-butylcarbamoyl-ethylcarbamoyl]-3-methyl-butyl}-amide] | 89 to 90 | 37 | 83 | 6.05 | 6.04
2 | CC(C)C[C@H](NC(=O)N1CCCCCC1)C(=O)N[C@@H](Cc1ccc(C#CC2CCCCC2)cc1)C(=O)NC(C)(C)C [Example 136, [S-(R*,R*)]-Azepane-1-carboxylic acid {1-[1-tert-butylcarbamoyl-2-(4-cyclohexylethynyl-phenyl)-ethylcarbamoyl]-3-methyl-butyl}-amide] | 171 to 172 | 45 | 64 |  | 5.81
3 | CC(C)C[C@H](NC(=O)N1CCCCCC1)C(=O)N[C@@H](Cc1ccc(CCC2(O)CCCCC2)cc1)C(=O)NC(C)(C)C [Example 148, [S-(R*,R*)]-Azepane-1-carboxylic acid [1-(1-tert-butylcarbamoyl-2-{4-[2-(1-hydroxy-cyclohexyl)-ethyl]-phenyl}-ethylcarbamoyl)-3-methyl-butyl]-amide] | 101 to 102 | 30 | 68 |  | 6.01
4 | CC(C)C[C@H](NC(=O)N1CCCCCC1)C(=O)N[C@@H](Cc1ccc(CCC2CCCCC2)cc1)C(=O)NC(C)(C)C [Example 146, [S-(R*,R*)]-Azepane-1-carboxylic acid (1-{1-tert-butylcarbamoyl-2-[4-(2-cyclohexyl-ethyl)-phenyl]-ethylcarbamoyl}-3-methyl-butyl)-amide] | 165 | 51 |  |  | 6.66
5 | CC(C)C[C@H](NC(=O)N1CCCCCC1)C(=O)N[C@@H](Cc1ccc(C#CCN2CCS(=O)(=O)CC2)cc1)C(=O)NC(C)(C)C [Example 140, [S-(R*,R*)]-Azepane-1-carboxylic acid [1-(1-tert-butylcarbamoyl-2-{4-[3-(1,1-dioxo-1l,6-thiomorpholin-4-yl)-prop-1-ynyl]-phenyl}-ethylcarbamoyl)-3-methyl-butyl]-amide] | 117 to 118 |  |  |  | 5.52
6 | CC(C)C[C@H](NC(=O)N1CCCCCC1)C(=O)N[C@@H](Cc1ccc(C#CC(C)(C)C)cc1)C(=O)NC(C)(C)C [Example 135, [S-(R*,R*)]-Azepane-1-carboxylic acid (1-{1-tert-butylcarbamoyl-2-[4-(3,3-dimethyl-but-1-ynyl)-phenyl]-ethylcarbamoyl}-3-methyl-butyl)-amide] | 180 to 181 | 43 | 71 |  | 6.17
7 | CC(C)C[C@H](NC(=O)N1CCCCCC1)C(=O)N[C@@H](Cc1ccc(CCC(C)(C)C)cc1)C(=O)NC(C)(C)C [Example 145, [S-(R*,R*)]-Azepane-1-carboxylic acid (1-{1-tert-butylcarbamoyl-2-[4-(3,3-dimethyl-butyl)-phenyl]-ethylcarbamoyl}-3-methyl-butyl)-amide] | 180 to 181 | 48 |  |  | 6.60
8 | CC(C)C[C@H](NC(=O)N1CCCCCC1)C(=O)N[C@@H](Cc1ccc(/C=C\C2CCCCC2)cc1)C(=O)NC(C)(C)C [Example 142, [S-(R*,R*),Z]-Azepane-1-carboxylic acid (1-{1-tert-butylcarbamoyl-2-[4-(2-cyclohexyl-vinyl)-phenyl]-ethylcarbamoyl}-3-methyl-butyl)-amide] | 168 to 169 |  |  |  | 6.17
9 | CC(C)C[C@H](NC(=O)N1CCCCCC1)C(=O)N[C@@H](Cc1ccc(CCCN2CCS(=O)(=O)CC2)cc1)C(=O)NC(C)(C)C [Example 150, [S-(R*,R*)]-Azepane-1-carboxylic acid [1-(1-tert-butylcarbamoyl-2-{4-[3-(1,1-dioxo-1l,6-thiomorpholin-4-yl)-propyl]-phenyl}-ethylcarbamoyl)-3-methyl-butyl]-amide] | 92 to 93 |  |  |  | 5.52
